# Test results taken from US12344600B2, “c-Myc mRNA translation modulators and uses thereof in the treatment of cancer” (Anima Biotech Inc., priority 2022, dated 2025).
# System: c-Myc
# Assay: c-Myc immunofluorescence assay
# Assay type: cell-based, human
# Details: A549 cells, 24 hours, anti-c-Myc immunofluorescence
# How it was run: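 Read-out is imaged c-Myc immunofluorescence, nucleus-segmented, in A549 lung carcinoma cells exposed to compound dose series for 24 h after 48 h growth. Fixation 4% paraformaldehyde, Triton permeabilization, antibody staining at room temperature; EC50 from logistic fit of signal versus concentration.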
row,SMILES,Myc Efficacy (−LogEC50)
1,"COc1ccc(-c2noc(N3CCC(C(=O)NCC4CCN(Cc5ccc(F)cc5)C4)CC3)n2)cc1 (stereo not shown) [Compound 331, N-((1-(4-fluorobenzyl)pyrrolidin-3-yl)methyl)-1-(3-(4-methoxyphenyl)-1,2,4-oxadiazol-5-yl)piperidine-4-carboxamide]",++ (++ ≥5 and <6)
2,"COc1ccc(-c2noc(N3CCC(C(=O)NC(CO)CC(F)(F)F)CC3)n2)cc1 (stereo not shown) [Compound 299, 1-(3-(4-methoxyphenyl)-1,2,4-oxadiazol-5-yl)-N-(4,4,4-trifluoro-1-hydroxybutan-2-yl)piperidine-4-carboxamide]",+ (+ >3 and <5)
3,"COc1ccc(-c2noc(N3CCC(C(=O)NCC4CCN(Cc5occc5C)C4)CC3)n2)cc1 (stereo not shown) [Compound 406, 1-(3-(4-methoxyphenyl)-1,2,4-oxadiazol-5-yl)-N-((1-((3-methylfuran-2-yl)methyl)pyrrolidin-3-yl)methyl)piperidine-4-carboxamide]",+ (+ >3 and <5)
4,"O=C(NCc1cccnc1)C1CCN(c2nc(-c3ccncc3)no2)CC1 [Compound 200, N-(pyridin-3-ylmethyl)-1-(3-(pyridin-4-yl)-1,2,4-oxadiazol-5-yl)piperidine-4-carboxamide]",+ (+ >3 and <5)
5,"O=C(NCCCN1CCC(Cc2ccccn2)CC1)N1CCN(c2nc(-c3ccc(C(F)(F)F)cc3)no2)CC1 [Compound 459, N-(3-(4-(pyridin-2-ylmethyl)piperidin-1-yl)propyl)-4-(3-(4-(trifluoromethyl)phenyl)-1,2,4-oxadiazol-5-yl)piperazine-1-carboxamide]",+++ (+++ ≥6)
6,"COc1ccc(-c2noc(N3CCC(C(=O)NC4CCOC5(CCCCC5)C4)CC3)n2)cc1 (stereo not shown) [Compound 289, 1-(3-(4-methoxyphenyl)-1,2,4-oxadiazol-5-yl)-N-(1-oxaspiro[5.5]undecan-4-yl)piperidine-4-carboxamide]",+ (+ >3 and <5)
7,"COc1ccc(-c2cc(N3CCC(C(=O)N4CCOCC4)CC3)on2)cc1 [Compound 183, (1-(3-(4-methoxyphenyl)isoxazol-5-yl)piperidin-4-yl)(morpholino)methanone]",+ (+ >3 and <5)
8,"COc1ccc(-c2coc(N3CCC(C(=O)NCc4cccnc4)CC3)n2)cc1 [Compound 201, 1-(4-(4-methoxyphenyl)oxazol-2-yl)-N-(pyridin-3-ylmethyl)piperidine-4-carboxamide]",+ (+ >3 and <5)
9,"COc1ccc(-c2noc(N3CCC(C(=O)NCC4CCN(c5ccccc5)C4)CC3)n2)cc1 (stereo not shown) [Compound 234, 1-(3-(4-methoxyphenyl)-1,2,4-oxadiazol-5-yl)-N-((1-phenylpyrrolidin-3-yl)methyl)piperidine-4-carboxamide]",+ (+ >3 and <5)
10,"COc1ccc(-c2noc(N3CCC(C(=O)Nc4cccc(Cl)c4)CC3)n2)cc1 [Compound 212, N-(3-chlorophenyl)-1-(3-(4-methoxyphenyl)-1,2,4-oxadiazol-5-yl)piperidine-4-carboxamide]",+ (+ >3 and <5)
11,"COc1ccc(-c2noc([C@H]3CC[C@@H](C(=O)O)CC3)n2)cc1 [Compound 173, (1s,4s)-4-(3-(4-methoxyphenyl)-1,2,4-oxadiazol-5-yl)cyclohexane-1-carboxylic acid]",+ (+ >3 and <5)
12,"Cc1ccc(CN2CCC(CNC(=O)C3CCN(c4nc(-c5ccc(Cl)cc5)no4)CC3)C2)nc1 (stereo not shown) [Compound 243, 1-(3-(4-chlorophenyl)-1,2,4-oxadiazol-5-yl)-N-((1-((5-methylpyridin-2-yl)methyl)pyrrolidin-3-yl)methyl)piperidine-4-carboxamide]",+++ (+++ ≥6)
13,"COc1ccc(-c2noc(N3CCC(C(=O)NCC4CCN(Cc5ccc(C)cc5)C4)CC3)n2)cc1 (stereo not shown) [Compound 105, 1-(3-(4-methoxyphenyl)-1,2,4-oxadiazol-5-yl)-N-((1-(4-methylbenzyl)pyrrolidin-3-yl)methyl)piperidine-4-carboxamide]",++ (++ ≥5 and <6)
